# In the supplement of paper PMC13380429:
# How the values were obtained:
# Conditions in all cases: 72 h
# Caco-2 [1] = test: cell viability relative to DMSO; higher = less toxic
# Calu-3 [2] = test: as above
# HepG2 [3] = test: as above
# U2OS [4] = test: as above
# Vero E6 [5] = test: as above
# Caco-2 [6] = test: relative viability EC50 (midpoint between 100% and the lowest measured viability); higher = less toxic
# Calu-3 [7] = test: as above
# HepG2 [8] = test: as above
# U2OS [9] = test: as above
# Vero E6 [10] = test: as above
# Caco-2 [11] = test: drug sensitivity score (DSS) for viability; higher = more toxic; extreme values may be limits of the assay
# Calu-3 [12] = test: as above
# HepG2 [13] = test: as above
# U2OS [14] = test: as above
# Vero E6 [15] = test: as above
Structure (SMILES),cell viability (Caco-2 [1]; 1 nM) [%],cell viability (Caco-2 [1]; 10 nM) [%],cell viability (Caco-2 [1]; 100 nM) [%],cell viability (Caco-2 [1]; 1000 nM) [%],cell viability (Caco-2 [1]; 10000 nM) [%],cell viability (Calu-3 [2]; 1 nM) [%],cell viability (Calu-3 [2]; 10 nM) [%],cell viability (Calu-3 [2]; 100 nM) [%],cell viability (Calu-3 [2]; 1000 nM) [%],cell viability (Calu-3 [2]; 10000 nM) [%],cell viability (HepG2 [3]; 1 nM) [%],cell viability (HepG2 [3]; 10 nM) [%],cell viability (HepG2 [3]; 100 nM) [%],cell viability (HepG2 [3]; 1000 nM) [%],cell viability (HepG2 [3]; 10000 nM) [%],cell viability (U2OS [4]; 1 nM) [%],cell viability (U2OS [4]; 10 nM) [%],cell viability (U2OS [4]; 100 nM) [%],cell viability (U2OS [4]; 1000 nM) [%],cell viability (U2OS [4]; 10000 nM) [%],cell viability (Vero E6 [5]; 1 nM) [%],cell viability (Vero E6 [5]; 10 nM) [%],cell viability (Vero E6 [5]; 100 nM) [%],cell viability (Vero E6 [5]; 1000 nM) [%],cell viability (Vero E6 [5]; 10000 nM) [%],relative viability EC50 (Caco-2 [6]) [µM],relative viability EC50 (Calu-3 [7]) [µM],relative viability EC50 (HepG2 [8]) [µM],relative viability EC50 (U2OS [9]) [µM],relative viability EC50 (Vero E6 [10]) [µM],drug sensitivity score (Caco-2 [11]),drug sensitivity score (Calu-3 [12]),drug sensitivity score (HepG2 [13]),drug sensitivity score (U2OS [14]),drug sensitivity score (Vero E6 [15])
CN(CCOc1ccc(C[C@H](Nc2ccccc2C(=O)c2ccccc2)C(=O)O)cc1)c1ccccn1 [GW-1929],95.1,96.3,107,99.5,85.5,111,112,120,116,95.6,92.2,104,81.5,85.8,106,98.3,96.1,99.3,98.7,98.2,92,90.2,80.3,82.3,90.2,> 10,> 10,> 10,> 10,> 10,0.2,0,0,0,0
O=C(O)C1=CO[C@@H](O[C@@H]2O[C@H](CO)[C@@H](O)[C@H](O)[C@H]2O)[C@@H]2C(CO)=CC[C@H]12 [Geniposidic acid],117,101,106,103,96.3,98.7,103,95.4,113,108,110,105,102,111,94.6,102,96.2,101,94.5,101,100,107,97.5,104,101,> 10,> 10,> 10,> 10,> 10,0,0,0,0,0
CCC(=O)OCN1C(=O)C=CC1=O [MIRA-1],90.6,97.5,87.8,94.7,112,90.6,108,104,101,98.9,104,95.9,106,106,103,99.3,99.4,102,102,105,95.8,91.8,99.8,92,107,> 10,> 10,> 10,> 10,> 10,0,0,0,0,0
CCCCCCCCCCCCCCCC[n+]1ccn(Cc2ccccc2)c1C [NH125],100,92.4,97,59.9,0.8,99.2,99.1,89.7,82.1,23.3,96.3,106,97.2,32.6,0,105,93.7,95.9,57.1,0.1,104,106,99.5,85.2,0.3,1.2,1.64,0.682,1.16,1.99,10.5,7,13.6,10.7,8
N#CC(c1ccnc(OCc2ccc(CN3CCOCC3)cc2)n1)c1nc2ccccc2s1 (stereo not given) [PGL5001],103,86,98.4,97,83.5,112,104,107,98.5,102,98.4,102,104,89.6,80.9,102,97.5,98.7,103,92,99.8,98.3,93.1,101,98.8,> 10,> 10,> 10,> 10,> 10,0.3,0,1.5,0,0
CCCCCCCCCCCCc1ccc(S(=O)(=O)Nc2nncs2)cc1 [PHT-427],95.2,95.3,101,98.1,97.4,96.4,94.9,95.6,99.6,99,93.6,106,88.1,102,92.6,102,97.5,98.2,98.7,99.9,106,108,102,97.8,104,> 10,> 10,> 10,> 10,> 10,0,0,0,0,0
N[C@@H](CC(=O)N1CCn2c(nnc2C(F)(F)F)C1)Cc1n[nH]c2c(F)c(F)ccc12 [PK-44],87.8,96.3,102,105,92.4,95.3,96.6,95.8,100,100,102,92,114,91.5,91,102,100,99.4,104,99.7,102,103,104,98.4,100,> 10,> 10,> 10,> 10,> 10,0,0,0,0,0
